The subject of series [1] is A/Puerto Rico/08/1934 (PR8), H1N1. The format is in vivo, female BALB/c mice. The settings on record: for % Survival: 10 days.
For series [2] the following is noted: 1 mg/mL in 1xPBS, over a week at 60° C.; HPLC 240 nm.
For series [3], the system named is INFV A H3N2 A/Hong Kong/1/68. Briefly: Lethal mouse influenza model, Study #2. The format is in vivo, female BALB/c mice. The conditions noted are these: 20 mg/kg PO B.I.D for 5 days from 8 h post infection.
In series [4] the test system is Influenza A/Puerto Rico/8/1934 (H1N1). Further details: species or system female BALB/c mice. The settings on record: mouse, in vivo.
The test system of series [5] is Influenza B/Brisbane/60/2008. Further details: species or system female BALB/c mice. The settings on record: mouse, in vivo.
The subject of series [6] is influenza A/WSN/1933 (H1N1). In words: CPE assay at different multiplicities of infection (Example 94). The format is cell-based, influenza A virus. The conditions noted are these: read-out: EC50 H1N1 A/WSN/1933 (CPE in MDCK cells).
Series [7] deals with H1N1 A/Netherlands/602/2009. Format: cell-based, influenza A virus.
The subject of series [8] is IAV H1N1 A/Texas/36/91. On the set-up: species or system female BALB/c mice. The conditions noted are these: mouse, in vivo.
Series [9] relates to INFV A H1N1 A/Texas/36/91. In words: Lethal mouse influenza model, Study #4 (treatment window). Format: in vivo, female BALB/c mice. The text has this: The experiment comprised 13 groups of 5 mice. At day 0, all mice were challenged with 1×LD90 H1N1 A/Texas/36/91. […] Vehicle (PBS) and Fc only were included as negative controls. […] All mice were monitored for survival (FIGS. 32A-32F) for 15 days after challenge.

The test system of series [10] is INFV A H1N1 A/Texas/36/91. Briefly: Lethal mouse influenza model, Study #3 (dosing 28 days before challenge). The format is in vivo, female BALB/c mice. The settings on record: 20 mg/kg PO twice daily 5 days from 8 h post infection. The text has this: The experiment comprised 7 groups of 5 mice. At day 0, all mice were challenged with 1×LD90 H1N1 A/Texas/36/91. Groups 1-6 received treatment IV, 28 days before challenge (Table 12). Vehicle (PBS) was included as an additional negative control. […] All mice were monitored for survival (FIGS. 31A-31F) for 15 days after challenge.

For series [11], the system named is INFV A H1N1 A/Texas/36/91. In words: Lethal mouse influenza model, Study #1. The format is in vivo, female BALB/c mice. The settings on record: 20 mg/kg B.I.D PO 5 days from 8 h post infection.
Series [12] deals with MDCK cells. The conditions noted are these: four days post treatment, dilutions starting at 10 μM.
Series [13] deals with Influenza A virus (INFV CA/09). Format: cell-based.
Series [14] concerns INFV B (B/Brisbane). The format is cell-based, influenza B virus.
The test system of series [15] is INFV CA/09 virus. The format is cell-based, influenza virus.
Series [16] relates to INFV A (A/CA/09 H1N1). The format is cell-based, influenza A virus.

A word on the CC50: it is the concentration giving 50% cytotoxicity. The low end stands for harm at low concentration, the high end for better tolerance by the cells.

Values joined by “and” are separate entries in the source; they are usually repeats but may differ in a detail not shown here. Equal values may be shown once. Read-outs that look alike come from different tables or passages of the source.

For the molecule `CC(=O)N[C@H]1[C@H]([C@H](OCC(=O)NCCCCNCCCCNC(=O)CO[C@@H]([C@@H]2OC(C(=O)O)=C[C@H](NC(=N)N)[C@H]2NC(C)=O)[C@H](O)CO)[C@H](O)CO)OC(C(=O)O)=C[C@@H]1NC(=N)N` [Int-11], in series [1], the “% Survival” value was determined as 0%. Further, in [1] (15 mg/kg), the “% Survival” value is recorded as 100%. In addition, in series [1] (mouse, in vivo), the “delay in death relative to vehicle and hIgG1 Fc only controls” value is recorded as at most 2 days; the “greater cumulative dose required for efficacy equivalent to conjugate 6 (mass basis)” value is recorded as 500 ×.

As to `C#CCOCCOCCOCCOCCN(C)C(=O)O[C@@H]([C@H]1OC(C(=O)O)=C[C@@H](NC(=N)N)[C@@H]1NC(C)=O)[C@H](O)CO` [Int-80], the degredation entry in series [2] is “less than 1%”.

With `CCOC(=O)C1=C[C@@H](OC(CC)CC)[C@H](NC(C)=O)[C@@H](N)C1` [Oseltamivir, oseltamivir], the results for the “% Survival” value in series [3] and in [1] were 80% and 20%, respectively. For the same molecule, the “Log reduction (PFU/mL)” value in series [4] was 0.24 and 0.52. In addition, the Body weights in [5] is 89 gm and 85 gm and 79 gm and 100 gm and 98 gm and 97 gm. In series [5], this molecule came in with a survival of 40%. Besides, the EC50 in series [6] (MOI 0.001) is 525 nM; in [6] (MOI 0.01), 1900 nM; in series [6] (MOI 0.1), over 10000 nM; in series [6] (MOI 1), over 10000 nM. Moreover, the “EC100 (CPE in MDCK cells)” value in series [7] is about 1000 nM. The “% Survival (Day 14)” value in series [8] is 100%.

As to `C#CCOCCOCCOCCOCCNC(=O)O[C@@H]([C@@H]1OC(C(=O)O)=C[C@H](NC(=N)N)[C@H]1NC(C)=O)[C@H](O)CO` [Int-4], the degredation in series [2] is given as 15%.

With `CCOC(=O)C1=C[C@@H](OC(CC)CC)[C@H](NC(C)=O)[C@@H](N)C1` [Oseltamivir phosphate], the “Mean Survival” value in series [3] worked out at 15 days; in series [11] it was 15. Also, the survival in series [9] (20 mg/kg PO bid × 5 days initiated at 48 hrs post-infection) was 0%; in series [9] (20 mg/kg PO bid × 5 days initiated at 72 hrs post-infection) it was 20%; in [10], “survived”. Further, the “% Survival” value in series [11] is 100%.

Consider `O=C1c2c(O)c(=O)ccn2N([C@@H]2c3ccccc3SCc3c2ccc(F)c3F)[C@@H]2COCCN12` [baloxavir], for which the EC50 in series [6] (Influenza A virus, MDCK, MOI 0.001) was 5 nM; in [6] (Influenza A virus, MDCK, MOI 0.01) it was 4 nM; in series [6] (Influenza A virus, MDCK, MOI 0.1) it was 79 nM; in [6] (Influenza A virus, MDCK, MOI 1) it was over 100 nM.

`CC(=O)N[C@H]1[C@H]([C@H](O)[C@H](O)CO)OC(C(=O)O)=C[C@@H]1N=C(N)N` [Zanamivir, zanamivir]: the CC50 in series [12] was over 10000 nM. Further, the EC50 in series [13] is 496 nM; in [14] it was 383 nM; in [15], 469 nM; in [6] (MOI 0.001), 137 nM; in series [6] (MOI 0.01), 938 nM; in [6] (MOI 0.1) it was over 10000 nM. For the same molecule, the EC50 in series [6] (MOI 1) was over 10000 nM; in series [16], 265 nM.

Source of the values: US12569565B2, “Compositions and methods for the treatment of viral infections” (Cidara Therapeutics, Inc., priority 2018, dated 2026).
